Measured values as given in patent publication US12070455B2, “Thienopyrrole compounds” (Gilead Sciences, Inc., priority 2021, dated 2024).

Tests used:
TLR7 = molecular target: T1, TLR7 (Homo sapiens, UniProt Q9NYK1); experiment: TLR7 human peripheral blood mononuclear cell (PBMC) cell-based assay; conditions: human PBMCs; 1 h with test antagonist, then TLR7 agonist GS-986 400 nM for 6 h; cytokines (IL-6 and IFNα) in supernatant; read-out: TLR-7 EC50
T1 construct: Human peripheral blood mononuclear cells (PBMCs) consist of lymphocytes, monocytes and dendritic cells that express TLR7, TLR8 and TLR9; endogenous in cells; host or cells: cryopreserved human PBMCs from healthy donors
T1 sequence (Q9NYK1 27-1049): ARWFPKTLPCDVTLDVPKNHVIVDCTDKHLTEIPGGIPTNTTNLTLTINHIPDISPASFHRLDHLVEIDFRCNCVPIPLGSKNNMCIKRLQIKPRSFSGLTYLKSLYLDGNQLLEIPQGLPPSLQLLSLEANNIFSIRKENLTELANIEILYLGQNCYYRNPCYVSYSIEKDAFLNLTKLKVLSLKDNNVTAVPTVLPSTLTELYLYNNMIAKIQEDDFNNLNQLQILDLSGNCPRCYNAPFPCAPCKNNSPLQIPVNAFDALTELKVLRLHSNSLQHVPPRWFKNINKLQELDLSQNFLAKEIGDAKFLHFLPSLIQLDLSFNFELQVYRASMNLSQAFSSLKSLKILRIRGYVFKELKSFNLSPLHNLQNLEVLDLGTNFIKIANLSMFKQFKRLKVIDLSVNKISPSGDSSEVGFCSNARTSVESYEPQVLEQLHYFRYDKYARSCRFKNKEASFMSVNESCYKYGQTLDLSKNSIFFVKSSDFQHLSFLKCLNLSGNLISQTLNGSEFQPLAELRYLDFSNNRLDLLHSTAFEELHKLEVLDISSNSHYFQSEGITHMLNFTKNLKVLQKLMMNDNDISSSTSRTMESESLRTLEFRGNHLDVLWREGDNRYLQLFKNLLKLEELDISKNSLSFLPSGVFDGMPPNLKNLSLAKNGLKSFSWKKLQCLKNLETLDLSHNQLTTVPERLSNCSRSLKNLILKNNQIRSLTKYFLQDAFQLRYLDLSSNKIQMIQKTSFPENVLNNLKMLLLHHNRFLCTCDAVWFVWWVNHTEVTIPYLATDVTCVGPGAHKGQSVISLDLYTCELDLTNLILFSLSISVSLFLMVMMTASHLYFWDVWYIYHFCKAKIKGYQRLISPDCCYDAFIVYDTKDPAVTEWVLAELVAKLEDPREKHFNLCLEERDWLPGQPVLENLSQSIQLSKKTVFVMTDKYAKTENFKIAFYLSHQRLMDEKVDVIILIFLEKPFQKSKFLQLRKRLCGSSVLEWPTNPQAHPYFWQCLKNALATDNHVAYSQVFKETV
Excerpt: TLR7/9 Human Peripheral Blood Mononuclear Cell (PBMC) Cell-Based Assay
Human peripheral blood mononuclear cells (PBMCs) consist of lymphocytes, monocytes and dendritic cells that express TLR7, TLR8 and TLR9. These cells respond to TLR7, TLR8 and TLR9 ligand stimulation and produce cytokines and chemokines in vitro and in vivo. Human PBMCs are therefore suitable to be used in a cell-based assay to assess the in vitro potency of a TLR 7, 8, and/or 9 antagonist.
Cryopreserved human PBMCs from healthy donors were thawed and resuspended in RPMI-1640 media with L-glutamine (Corning) supplemented with 10% Fetal Bovine Serum (Hyclone) and 1× Penicillin-Streptomycin (Corning). After counting, the cell density was adjusted to 2 million cells/ml and incubated for 1 hour at 37° C., 5% CO2 for recovery. Following the recovery, the cells were plated by adding 50 μl per well (100,000 cells) to 384-well cell culture plates (Greiner) containing 250 nl of test antagonists in 100% DMSO per well, in a 10 points dose response in quadruplicates. PBMCs were incubated in the presence of test antagonists for one hour at 37° C., 5% CO2 before being stimulated with a TLR7 or TLR9 agonist. GS-986 (Gilead Sciences) was used as the TLR7 agonist at a final concentration of 400 nM. ODN-2216 (InvivoGen) was used as the TLR9 agonist at a final concentration of 3 μM. PBMCs were incubated in the presence of the test antagonist and the TLR7 (or TLR9) agonist for an additional 6 hours at 37° C., 5% CO2. At the end of the incubation, the cell culture plates were centrifuged at 500 g for 5 min, and the cell culture supernatant was collected. The level of cytokines (IL-6 and IFNα) in the supernatant was measured by electrochemiluminescence immunoassays (Mesoscale Discovery) following manufacturer's recommended protocols. The level of cytokine measured was plotted against the test antagonist concentration and fitted to a sigmoidal function to determine the EC50, which are shown below in Table 6.

TLR8 = molecular target: T2, TLR8 (Homo sapiens, UniProt Q9NR97); experiment: TLR8 human peripheral blood mononuclear cell (PBMC) cell-based assay; conditions: human PBMCs; 1 h with antagonist, then TLR8 agonist Compound A 800 nM for 6 h; cytokines (TNFa and IL12p40) in supernatant; read-out: TLR-8 EC50
T2 construct: Human peripheral blood mononuclear cells (PBMCs) consist of lymphocytes, monocytes and dendritic cells that express TLR7, TLR8 and TLR9; endogenous in cells; host or cells: cryopreserved human PBMCs from healthy donors
T2 sequence (Q9NR97 27-1041): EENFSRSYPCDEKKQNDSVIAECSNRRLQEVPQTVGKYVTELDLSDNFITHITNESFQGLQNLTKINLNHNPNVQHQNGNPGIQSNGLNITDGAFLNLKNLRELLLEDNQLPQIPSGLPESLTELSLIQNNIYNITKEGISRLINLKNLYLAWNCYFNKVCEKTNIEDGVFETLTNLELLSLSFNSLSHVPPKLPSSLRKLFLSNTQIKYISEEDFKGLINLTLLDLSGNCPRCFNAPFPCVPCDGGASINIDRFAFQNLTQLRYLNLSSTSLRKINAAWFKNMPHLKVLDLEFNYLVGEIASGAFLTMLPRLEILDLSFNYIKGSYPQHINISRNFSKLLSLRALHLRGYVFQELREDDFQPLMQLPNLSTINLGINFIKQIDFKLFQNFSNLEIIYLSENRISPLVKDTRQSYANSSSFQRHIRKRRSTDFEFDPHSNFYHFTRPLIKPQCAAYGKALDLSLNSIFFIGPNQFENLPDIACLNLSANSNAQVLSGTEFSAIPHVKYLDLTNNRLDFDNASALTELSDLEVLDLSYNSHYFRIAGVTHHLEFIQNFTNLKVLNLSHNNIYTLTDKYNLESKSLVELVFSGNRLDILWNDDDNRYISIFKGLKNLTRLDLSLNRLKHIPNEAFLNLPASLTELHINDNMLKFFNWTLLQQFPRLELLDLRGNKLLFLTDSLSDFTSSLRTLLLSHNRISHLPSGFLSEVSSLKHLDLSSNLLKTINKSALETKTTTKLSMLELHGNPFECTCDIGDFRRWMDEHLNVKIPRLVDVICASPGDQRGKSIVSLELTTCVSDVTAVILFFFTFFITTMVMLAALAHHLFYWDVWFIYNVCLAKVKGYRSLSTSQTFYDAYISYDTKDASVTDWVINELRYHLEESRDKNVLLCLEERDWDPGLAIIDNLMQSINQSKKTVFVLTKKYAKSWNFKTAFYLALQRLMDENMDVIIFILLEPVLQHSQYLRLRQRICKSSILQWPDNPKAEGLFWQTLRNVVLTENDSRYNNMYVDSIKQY
Procedure: TLR8 Human Peripheral Blood Mononuclear Cell (PBMC) Cell-Based Assay
Cryopreserved human PBMCs from healthy donors were thawed and resuspended in RPMI-1640 media with L-glutamine (Corning) supplemented with 10% Fetal Bovine Serum (Hyclone) and 1× Penicillin-Streptomycin (Corning). After counting, the cell density was adjusted to 2 million cells/ml and incubated for 1 hour at 37° C., 5% CO2 for recovery. Following the recovery, the cells were plated by adding 50 μl per well (100,000 cells) to 384-well cell culture plates (Greiner) containing 250 nl of test antagonists in 100% DMSO per well, in a 10 points dose response in quadruplicates. PBMCs were incubated in the presence of antagonists for one hour at 37° C., 5% CO2 before being stimulated with TLR8 agonist. Compound A (Gilead Sciences, U.S. Pat. No. 10,285,990) was used as the TLR8 agonist at a final concentration of 800 nM. PBMCs were incubated in the presence of antagonist and the TLR8 agonist for an additional 6 hours at 37° C., 5% CO2. At the end of the incubation, the cell culture plates were centrifuged at 500 g for 5 min, and the cell culture supernatant was collected. The level of cytokines (TNFa and IL12p40) in the supernatant was measured by electrochemiluminescence immunoassays (Mesoscale Discovery) following manufacturer's recommended protocols. The level of cytokine measured was plotted against the antagonist concentration and fitted to a sigmoidal function to determine the EC50, which are shown below in Table 6.

Row | EC50 (TLR7) | EC50 (TLR8) | Compound
1 | 1.17 nM | 0.32 nM | Cc1c(C2CC3(CCN(CC(N)=O)C3)C2)sc2[nH]c(-c3cn4ncnc4c4c3CCC4)c(C(C)C)c12 (stereo not shown) [Example 9]
2 | 0.58 nM | 4.87 nM | Cc1c(C2CCN(C(=O)[C@H]3COCCN3)CC2)sc2[nH]c(-c3cn4ncnc4c4c3CCC4)c(C(C)C)c12 [Example 14, (R)-(4-(5-(8,9-dihydro-7H-cyclopenta[c][1,2,4]triazolo[1,5-a]pyridin-6-yl)-4-isopropyl-3-methyl-6H-thieno[2,3-b]pyrrol-2-yl)piperidin-1-yl)(morpholin-3-yl)methanone]
3 | 0.11 nM | 1.89 nM | Cc1c(C2CCNCC2)sc2[nH]c(-c3cn4ncnc4c4c3CCC4)c(C(C)C)c12 [Example 1, 5-(8,9-dihydro-7H-cyclopenta[c][1,2,4]triazolo[1,5-a]pyridin-6-yl)-4-isopropyl-3-methyl-2-(piperidin-4-yl)-6H-thieno[2,3-b]pyrrole]
4 | 1.46 nM | 12.5 nM | Cc1c(C2CCN(C(=O)[C@H]3C[C@@H](F)CN3)CC2)sc2[nH]c(-c3cn4ncnc4c4c3CCC4)c(C(C)C)c12 [Example 16]
5 | 2.95 nM | 24.5 nM | Cc1c(C2CCN(C(=O)[C@H]3COCCN3)CC2)sc2[nH]c(-c3cn4ncnc4c4c3CCO4)c(C(C)C)c12 [Example 37]
6 | 0.78 nM | 34.6 nM | Cc1nc2c3c(c(-c4[nH]c5sc(C6CCN(CC(N)=O)CC6)c(C)c5c4C(C)C)cn2n1)CCC3 [Example 50]

Second part, the compound before the results:

Row | Compound | EC50 (TLR7) | EC50 (TLR8)
7 | Cc1c(-c2cn(C3CCNCC3)nn2)sc2[nH]c(-c3cn4ncnc4c4c3CCC4)c(C(C)C)c12 [Example 24] | 0.94 nM | 0.21 nM
8 | Cc1c(C2CCC(N3CC4(CCN(C)C4=O)C3)CC2)sc2[nH]c(-c3cn4ncnc4c4c3CCC4)c(C(C)C)c12 (stereo not shown) [Example 30] | 0.86 nM | 1.29 nM
9 | Cc1c([C@@H]2C[C@@H]3C[C@H]2CN3CC(N)=O)sc2[nH]c(-c3cn4ncnc4c4c3COC4)c(C(C)C)c12 [Example 48] | 0.39 nM | 0.36 nM
10 | Cc1c(C2CCN(C(=O)[C@@H]3C[C@H](C(F)(F)F)CN3)CC2)sc2[nH]c(-c3cn4ncnc4c4c3CCC4)c(C(C)C)c12 [Example 39] | 3.4 nM | 5.01 nM
11 | Cc1c(C2CCN(CC(N)=O)CC2)sc2[nH]c(-c3cn4ncnc4c4c3COC4)c(C(C)C)c12 [Example 45] | 4 nM | 63.6 nM
12 | Cc1nc2c3c(c(-c4[nH]c5sc(C6CCN(C(=O)[C@H]7COCCN7)CC6)c(C)c5c4C(C)C)cn2n1)COC3 [Example 51, (R)-(4-(4-isopropyl-3-methyl-5-(2-methyl-7,9-dihydrofuro[3,4-c][1,2,4]triazolo[1,5-a]pyridin-6-yl)-6H-thieno[2,3-b]pyrrol-2-yl)piperidin-1-yl)(morpholin-3-yl)methanone] | 2.46 nM | 96.6 nM
13 | Cc1nc2c3c(c(-c4[nH]c5sc(C6CCN(CC(N)=O)CC6)c(C)c5c4C(C)C)cn2n1)COC3 [Example 44] | 4.09 nM | 135 nM
14 | Cc1c(C2C[C@@H]3C[C@H]2CN3CC(N)=O)sc2[nH]c(-c3cn4ncnc4c4c3CCC4)c(C(C)C)c12 (stereo partly shown) [Example 8] | 0.69 nM | 0.14 nM
15 | Cc1c(C2CCNCC2)sc2[nH]c(-c3cn4ncnc4c4c3CCO4)c(C(C)C)c12 [Example 35] | 0.33 nM | 7.88 nM
16 | Cc1c(C2C[C@@H]3C[C@H]2CN3)sc2[nH]c(-c3cn4ncnc4c4c3CCC4)c(C(C)C)c12 (stereo partly shown) [Example 3] | 0.77 nM | 0.31 nM
17 | Cc1c(C2CCN(C(=O)C3(N4CCOCC4)CC3)CC2)sc2[nH]c(-c3cn4ncnc4c4c3CCC4)c(C(C)C)c12 [Example 20] | 4.63 nM | 22.3 nM
18 | Cc1c(C2CCN(Cc3ccn(C)n3)CC2)sc2[nH]c(-c3cn4ncnc4c4c3CCC4)c(C(C)C)c12 [Example 13] | 1.44 nM | 5.84 nM
19 | Cc1c(C2CCN(C(=O)[C@H]3C[C@@H](O)CN3)CC2)sc2[nH]c(-c3cn4ncnc4c4c3CCC4)c(C(C)C)c12 [Example 31] | 1.33 nM | 6.38 nM
20 | CC(C)c1c(-c2cn3ncnc3c3c2CCC3)[nH]c2sc(C(=O)N(C)C3CCNCC3)cc12 [Example 41, 5-(8,9-dihydro-7H-cyclopenta[c][1,2,4]triazolo[1,5-a]pyridin-6-yl)-4-isopropyl-N-methyl-N-(piperidin-4-yl)-6H-thieno[2,3-b]pyrrole-2-carboxamide] | 0.49 nM | 2.56 nM
